Measurements published in patent publication US20250325677A1, “STAT6 DEGRADERS” (Gilead Sciences, Inc., priority 2024, published 2025).
Read-outs that look alike come from different tables or passages of the source.

Tests used:
STAT6 = STAT6 (Homo sapiens (Human), UniProt P42226); assay: STAT6 degrader assay (HiBiT, HeLa LgBiT clone 4.14); format: cell-based; conditions: HeLa LgBiT clone 4.14, 4-24 h; for DC50: geometric mean, given for compounds with >80% Emax, read-out: STAT6 degradation DC50; for Emax: read-out: STAT6 degradation Emax (%)
Sequence of STAT6 (P42226 whole entry): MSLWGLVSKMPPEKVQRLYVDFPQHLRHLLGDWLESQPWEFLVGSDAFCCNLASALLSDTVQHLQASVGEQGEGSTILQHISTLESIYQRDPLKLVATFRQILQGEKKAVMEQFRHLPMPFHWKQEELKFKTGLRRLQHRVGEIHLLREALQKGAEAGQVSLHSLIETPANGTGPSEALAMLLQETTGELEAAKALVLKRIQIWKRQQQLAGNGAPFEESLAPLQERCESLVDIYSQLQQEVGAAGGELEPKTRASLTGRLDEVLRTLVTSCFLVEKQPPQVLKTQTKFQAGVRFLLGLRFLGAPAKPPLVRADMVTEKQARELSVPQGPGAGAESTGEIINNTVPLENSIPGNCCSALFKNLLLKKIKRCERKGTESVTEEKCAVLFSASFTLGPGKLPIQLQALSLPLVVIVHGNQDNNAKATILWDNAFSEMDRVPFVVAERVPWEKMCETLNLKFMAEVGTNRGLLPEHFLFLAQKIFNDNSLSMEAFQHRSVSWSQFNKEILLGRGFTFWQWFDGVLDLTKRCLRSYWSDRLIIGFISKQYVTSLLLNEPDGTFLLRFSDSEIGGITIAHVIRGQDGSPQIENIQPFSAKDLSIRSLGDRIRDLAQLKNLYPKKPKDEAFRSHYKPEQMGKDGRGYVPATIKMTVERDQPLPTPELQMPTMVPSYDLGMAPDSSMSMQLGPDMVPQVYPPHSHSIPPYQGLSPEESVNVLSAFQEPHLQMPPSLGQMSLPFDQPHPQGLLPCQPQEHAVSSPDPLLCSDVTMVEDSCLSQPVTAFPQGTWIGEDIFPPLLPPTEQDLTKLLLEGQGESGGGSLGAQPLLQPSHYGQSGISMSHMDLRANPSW
Summary of the method: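 DC50 (nM) comes from luminescence of non-degraded STAT6 read 0.5 h after Nano-GLO addition, following 4-24 h compound exposure at 37° C. Cells were HeLa clone 4.14 expressing LgBiT with a CRISPR HiBiT tag on endogenous STAT6; 50 μM terfenadine set full degradation.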

eotaxin-3 release = assay: Human whole blood eotaxin-3 assay (IL-4 stimulated); format: cell-based; conditions: human whole blood
Experimental: Human Whole Blood Eotaxin-3 Assay
This was a human whole blood assay using recombinant human Interleukin 4 to stimulate the blood and measuring the ability of the test compounds to inhibit eotaxin-3 release. Compounds or media were added to the wells and incubated together with human whole blood for 120 minutes at 37° C. Subsequently, recombinant IL-4 was added at a final concentration of 0.4 nM. The plates were incubated for 48 hours.
Test compounds which inhibited eotaxin-3 release upon stimulation with human IL-4 (E. coli) interfered with the signaling in human whole blood are expected to have activity in human beings. […] The EC50 value indicates at which concentration test compounds were active and in inhibiting the eotaxin-3 release. As eotaxin-3 release is down-stream of STAT6 signaling both STAT6 inhibitors and STAT6 degraders are active in this assay.
The data from the human whole blood eotaxin-3 assay is shown below for Examples 3e27, 3e50, 3e17, and 3e51 (where the effect in % is plotted against the test concentration in M on a log-scale).

[1] = IL-4 0.4 nM, 48 hours, geometric mean, given for compounds with >80% Emax, read-out: Eotaxin-3 EC50

| Compound | EC50 (eotaxin-3 release; [1]) | other results |
| --- | --- | --- |
| C[C@H]1CN(Cc2cc3c(cc2F)n(C2CCC(=O)NC2=O)c(=O)n3C)CCN1CC1CCN(C(=O)c2ccc(C3CCN([C@@H](C)c4cc5c(-c6ccc(N)nc6)ccnc5n4C)CC3)cc2)CC1 (mixture of isomers) [Example 3e34, 3-(5-(((S)-4-((1-(4-(1-((S)-1-(4-(6-aminopyridin-3-yl)-1-methyl-1H-pyrrolo[2,3-b]pyridin-2-yl)ethyl)piperidin-4-yl)benzoyl)piperidin-4-yl)methyl)-3-methylpiperazin-1-yl)methyl)-6-fluoro-3-methyl-2-oxo-2,3-dihydro-1H-benzo[d]imidazol-1-yl)piperidine-2,6-dione] | 1.8 nM | DC50 (STAT6): 0.4 nM |
| C[C@H]1CN(Cc2ccc3c(c2)n(C)c(=O)n3[C@H]2CCC(=O)NC2=O)CCN1CC1CCN(C(=O)c2ccc(C3CCN(Cc4cc5c(-c6ccc(N)nc6)ccnc5n4C)CC3)cc2)CC1 (single isomer, unassigned) [Example 3e19] | 20.9 nM | DC50 (STAT6): 0.7 nM |
| C[C@H]1CN(Cc2ccc3c(c2)n(C)c(=O)n3[C@@H]2CCC(=O)NC2=O)CCN1CC1CCN(C(=O)c2ccc(C3CCN(Cc4cc5c(-c6ccc(N)nc6)ccnc5n4C)CC3)cc2)CC1 (single isomer, unassigned) [Example 3e20] | 29.8 nM | DC50 (STAT6): 1.1 nM |
| CC[C@H]1CN(Cc2ccc3c(c2)n(C)c(=O)n3[C@@H]2CCC(=O)NC2=O)CCN1CC1CCN(C(=O)c2ccc(C3CCN([C@@H](C)c4cc5c(-c6ccc(N)nc6)ccnc5n4C)CC3)cc2)CC1 (single isomer, unassigned) [Example 3e57] | 4.4 nM |  |
| CC[C@H]1CN(Cc2ccc3c(c2)n(C)c(=O)n3[C@H]2CCC(=O)NC2=O)CCN1CC1CCN(C(=O)c2ccc(C3CCN([C@@H](C)c4cc5c(-c6ccc(N)nc6)ccnc5n4C)CC3)cc2)CC1 (single isomer, unassigned) [Example 3e59] | 8.4 nM |  |
| CNc1ccc(-c2ccnc3c2cc([C@H](C)N2CC=C(c4c(C)cc(C(=O)N5CCC(CN6CCN(Cc7ccc8c(c7)C7(CC7)C(=O)N8C7CCC(=O)NC7=O)C[C@@H]6C)CC5)cc4F)CC2)n3C)cn1 (stereo partly drawn) [Example 3h20, 3-(5′-(((S)-4-((1-(3-fluoro-5-methyl-4-(1-((S)-1-(1-methyl-4-(6-(methylamino)pyridin-3-yl)-1H-pyrrolo[2,3-b]pyridin-2-yl)ethyl)-1,2,3,6-tetrahydropyridin-4-yl)benzoyl)piperidin-4-yl)methyl)-3-methylpiperazin-1-yl)methyl)-2′-oxospiro[cyclopropane-1,3′-indolin]-1′-yl)piperidine-2,6-dione] | 3.6 nM |  |
| C[C@H]1CN(Cc2ccc3c(c2)C2(CC2)C(=O)N3C2CCC(=O)NC2=O)CCN1CC1CCN(C(=O)c2ccc(C3CCN([C@@H](C)c4cc5c(-c6ccc(N)nc6)ccnc5n4C)CC3)cc2)CC1 (stereo partly drawn) [Example 3h29, 3-(5′-(((S)-4-((1-(4-(1-((S)-1-(4-(6-aminopyridin-3-yl)-1-methyl-1H-pyrrolo[2,3-b]pyridin-2-yl)ethyl)piperidin-4-yl)benzoyl)piperidin-4-yl)methyl)-3-methylpiperazin-1-yl)methyl)-2′-oxospiro[cyclopropane-1,3′-indolin]-1′-yl)piperidine-2,6-dione] | 2.6 nM |  |
| C[C@H]1CN(Cc2cc3c(cc2F)N(C2CCC(=O)NC2=O)C(=O)C3(C)C)CCN1CC1CCN(C(=O)c2ccc(C3CCN([C@@H](C)c4cc5c(-c6ccc(N)nc6)ccnc5n4C)CC3)cc2)CC1 (stereo partly drawn) [Example 3h35, 3-(5-(((S)-4-((1-(4-(1-((S)-1-(4-(6-aminopyridin-3-yl)-1-methyl-1H-pyrrolo[2,3-b]pyridin-2-yl)ethyl)piperidin-4-yl)benzoyl)piperidin-4-yl)methyl)-3-methylpiperazin-1-yl)methyl)-6-fluoro-3,3-dimethyl-2-oxoindolin-1-yl)piperidine-2,6-dione] | 31.7 nM |  |
| CNc1ccc(-c2ccnc3c2cc([C@H](C)N2CC=C(c4c(F)cc(C(=O)N5CCC(CN6CCN(Cc7ccc8c(c7)C7(CC7)C(=O)N8C7CCC(=O)NC7=O)C[C@@H]6C)CC5)cc4F)CC2)n3C)cn1 (stereo partly drawn) [Example 3h36, 3-(5′-(((S)-4-((1-(3,5-difluoro-4-(1-((S)-1-(1-methyl-4-(6-(methylamino)pyridin-3-yl)-1H-pyrrolo[2,3-b]pyridin-2-yl)ethyl)-1,2,3,6-tetrahydropyridin-4-yl)benzoyl)piperidin-4-yl)methyl)-3-methylpiperazin-1-yl)methyl)-2′-oxospiro[cyclopropane-1,3′-indolin]-1′-yl)piperidine-2,6-dione] | 8.3 nM |  |
| CNc1ccc(-c2ccnc3c2cc(CN2CC=C(c4c(F)cc(C(=O)N5CCC(CN6CCN(Cc7ccc8c(c7)C7(CC7)C(=O)N8C7CCC(=O)NC7=O)C[C@@H]6C)CC5)cc4F)CC2)n3C)cn1 (stereo partly drawn) [Example 3h37, 3-(5′-(((S)-4-((1-(3,5-difluoro-4-(1-((1-methyl-4-(6-(methylamino)pyridin-3-yl)-1H-pyrrolo[2,3-b]pyridin-2-yl)methyl)-1,2,3,6-tetrahydropyridin-4-yl)benzoyl)piperidin-4-yl)methyl)-3-methylpiperazin-1-yl)methyl)-2′-oxospiro[cyclopropane-1,3′-indolin]-1′-yl)piperidine-2,6-dione] | 95.5 nM |  |
| C[C@@H](c1cc2c(-c3ccc(N)nc3)ccnc2n1C)N1CCC(c2ccc(C(=O)N3CCC(CN4CCN(c5cc6c(cc5F)n(C5CCC(=O)NC5=O)c(=O)n6C)CC4)CC3)cc2)CC1 (stereo partly drawn) [Example 3h44, 3-(5-(4-((1-(4-(1-((S)-1-(4-(6-aminopyridin-3-yl)-1-methyl-1H-pyrrolo[2,3-b]pyridin-2-yl)ethyl)piperidin-4-yl)benzoyl)piperidin-4-yl)methyl)piperazin-1-yl)-6-fluoro-3-methyl-2-oxo-2,3-dihydro-1H-benzo[d]imidazol-1-yl)piperidine-2,6-dione] | 19.4 nM |  |
| CNc1ccc(-c2ccnc3c2cc([C@H](C)N2CC=C(c4c(C)cc(C(=O)N5CCC(CN6CCN(c7cc8c(cc7F)n(C7CCC(=O)NC7=O)c(=O)n8C)CC6)CC5)cc4F)CC2)n3C)cn1 (stereo partly drawn) [Example 3h45, 3-(6-fluoro-5-(4-((1-(3-fluoro-5-methyl-4-(1-((S)-1-(1-methyl-4-(6-(methylamino)pyridin-3-yl)-1H-pyrrolo[2,3-b]pyridin-2-yl)ethyl)-1,2,3,6-tetrahydropyridin-4-yl)benzoyl)piperidin-4-yl)methyl)piperazin-1-yl)-3-methyl-2-oxo-2,3-dihydro-1H-benzo[d]imidazol-1-yl)piperidine-2,6-dione] | 6.7 nM |  |
| C[C@H]1CN(c2ccc3c(c2)C2(CC2)C(=O)N3C2CCC(=O)NC2=O)CCN1CC1CCN(C(=O)c2ccc(C3CCN([C@@H](C)c4cc5c(-c6ccc(N)nc6)ccnc5n4C)CC3)cc2)CC1 (stereo partly drawn) [Example 3h46, 3-(5′-((S)-4-((1-(4-(1-((S)-1-(4-(6-aminopyridin-3-yl)-1-methyl-1H-pyrrolo[2,3-b]pyridin-2-yl)ethyl)piperidin-4-yl)benzoyl)piperidin-4-yl)methyl)-3-methylpiperazin-1-yl)-2′-oxospiro[cyclopropane-1,3′-indolin]-1′-yl)piperidine-2,6-dione] | 230 nM |  |
| Cn1c(CN2CCC(c3ccc(C(=O)N4CCC(CN5CCN(Cc6ccc7c(c6)n(C6CCC(=O)NC6=O)c(=O)n7C)CC5)CC4)cc3)CC2)cc2c(-c3ccc(N)nc3)ccnc21 (stereo not drawn) [Example 3o2, 3-(6-((4-((1-(4-(1-((4-(6-aminopyridin-3-yl)-1-methyl-1H-pyrrolo[2,3-b]pyridin-2-yl)methyl)piperidin-4-yl)benzoyl)piperidin-4-yl)methyl)piperazin-1-yl)methyl)-3-methyl-2-oxo-2,3-dihydro-1H-benzo[d]imidazol-1-yl)piperidine-2,6-dione] |  | Emax (STAT6): < 20% |
| Cn1c(CN2CCC(c3ccc(C(=O)N4CCC(CN5CCC(c6cccc7c6n(C)c(=O)n7C6CCC(=O)NC6=O)CC5)CC4)cc3)CC2)cc2c(-c3ccc4[nH]ncc4c3)ccnc21 (stereo not drawn) [Example 3t1, 3-(4-(1-((1-(4-(1-((4-(1H-indazol-5-yl)-1-methyl-1H-pyrrolo[2,3-b]pyridin-2-yl)methyl)piperidin-4-yl)benzoyl)piperidin-4-yl)methyl)piperidin-4-yl)-3-methyl-2-oxo-2,3-dihydro-1H-benzo[d]imidazol-1-yl)piperidine-2,6-dione] |  | Emax (STAT6): < 20% |
| Cn1c(CN2CCC(c3ccc(C(=O)N4CCC(Cn5cc(-c6cccc7c6n(C)c(=O)n7C6CCC(=O)NC6=O)nn5)CC4)cc3)CC2)cc2c(-c3ccc4[nH]ncc4c3)ccnc21 (stereo not drawn) [Example 3t2, 3-(4-(1-((1-(4-(1-((4-(1H-indazol-5-yl)-1-methyl-1H-pyrrolo[2,3-b]pyridin-2-yl)methyl)piperidin-4-yl)benzoyl)piperidin-4-yl)methyl)-1H-1,2,3-triazol-4-yl)-3-methyl-2-oxo-2,3-dihydro-1H-benzo[d]imidazol-1-yl)piperidine-2,6-dione] |  | Emax (STAT6): < 20% |
| CCCS(=O)(=O)N[C@H]1C[C@@H](N(C)c2ncnc3[nH]ccc23)C1 [abroticinib, abrocitinib, reference compound] |  | EC50 (eotaxin-3 release; hIL-4 (E. coli) stimulation, read-out: EC50 of inhibition of eotaxin-3 release (reference compound)): ~450 nM; Emax (eotaxin-3 release; hIL-4 (E. coli) stimulation, read-out: Emax of inhibition of eotaxin-3 release): ~100% |
